Tested on: Th-17 cells differentiation of human CD4+ naïve T cells
Assay: Ex vivo human Th-17 cells differentiation (flow cytometry)
Assay type: cell-based
Conditions: 0.03 μM PGE2, 48 hours
Method: Peripheral blood mononuclear cells (PBMC) were isolated from healthy volunteers using density gradient centrifugation and CD4+naïve T cells were enriched from PBMCs using human naïve CD4+ T cell isolation kit (Miltenyi Biotech). Isolated CD4+ T cells were maintained in RPMI medium and differentiated toward Th-17 cells by stimulation with IL-12 and IL-2, both 5 ng/ml in combination with 1.5 ng/ml of antibodies anti CD3 and anti CD28 and 0.03 μM PGE2+Compound 1 at concentration of 0.01-0.03-0.1-0.3 μM for 48 hours.
At the end of incubation time cells were stained with fluorescence-conjugated antibodies specific for CD4, CCR6, CD45, CD25 and IL-17 (all from BD Bioscience). Finally, the number of Th-17 cells was determined by flow cytometry and the events were measured by Fluorescence Activated Cell Sorter (FACS; BD Bioscience) and analyzed with dedicated software.

O=C([O-])c1ccc(C2(NC(=O)[C@H]3CC4(CCN3Cc3ccc(C(F)(F)F)cc3)CC4)CC2)cc1.[Na+] [Compound 1, sodium (R)-4-(1-(6-(4-(trifluoromethyl)benzyl)-6-azaspiro[2.5]octane-5-carboxamido)cyclopropyl)benzoate] was tested, and the “concentration at which plateau of maximal effect on Th-17 cells is reached” value was “above 0.1 μM” and the “number of naïve Th-17 cells” value (0.01-0.3 μM) was “marked decrease”.
